Results on 36 compounds are retold here after patent EP2975030B1, “DIHYDROPYRIDAZINE-3,5-DIONE DERIVATIVE” (Chugai Seiyaku Kabushiki Kaisha, priority 2013, dated 2014).

The assay relates to rat small-intestinal brush border membrane vesicles. Nature of the assay: Inhibitory effect on 33PO4 uptake into rat small-intestinal brush border membrane vesicles (rapid filtration method). It counts as biochemical, Wistar female rat. The note with it: 1 µM test compound; 33PO4 uptake into rat small-intestinal BBMVs, 60 seconds. The gist of the method:
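Uptake was terminated by ice-cold 110 mM NaCl, 1 mM KH2PO4, 10 mM HEPES (pH 7.5) buffer and immediate suction filtration, then washing. Using rat small-intestinal BBMVs, retained 33PO4 was quantified by liquid scintillation counting as transport activity.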

Molecules are shown by their SMILES.

For the compound `C[C@]12CCCN1N(Cc1cccc(F)c1F)C(=O)C(C(=O)Nc1ccc(C(F)(F)F)cc1-c1cncc(C(F)(F)F)c1)=C2O` [Example 91], the “Rate of uptake inhibition (%) (1 µM)” value is 87%.
As for `CC(C)[C@H]1C(O)=C(C(=O)Nc2ccc(Cl)cc2-c2ccc(C(F)(F)F)nc2)C(=O)N(Cc2ccc(OCCN3CCOCC3)c(F)c2F)N1C` [Example 281], the “Rate of uptake inhibition (%) (1 µM)” value amounted to 41%.
For `CN1N(Cc2ccc(OCCN3[C@@H]4COC[C@H]3C4)c(F)c2F)C(=O)C(C(=O)Nc2ccc(C(F)(F)F)cc2-c2cc(C(F)(F)F)ncn2)=C(O)C12CCC2` [Example 339], the “Rate of uptake inhibition (%) (1 µM)” value was 66%.
For the compound `Cc1cc(NC(=O)C2=C(O)[C@@H]3CC(C)(C)CN3N(Cc3cccc(F)c3)C2=O)c(C(F)(F)F)o1` [Example 3, (4aS)-1-[(3-Fluorophenyl)methyl]-4-hydroxy-6,6-dimethyl-N-[5-methyl-2-(trifluoromethyl)furan-3-yl]-2-oxo-5,7-dihydro-4aH-pyrrolo[1,2-b]pyridazine-3-carboxamide], the “Rate of uptake inhibition (%) (1 µM)” value came to 11%.
On to `C[C@]12CCCN1N(Cc1cccc(C#N)c1)C(=O)C(C(=O)Nc1ccc(C(F)(F)F)cc1-c1cc(C(F)(F)F)ncn1)=C2O` [Example 179], for which the “Rate of uptake inhibition (%) (1 µM)” value is recorded as 83%.
For the compound `C[C@]12CCCN1N(Cc1ccc(Br)cc1F)C(=O)C(C(=O)Nc1cc(F)c(Br)c(F)c1)=C2O` [Example 166, (4aR)-N-(4-Bromo-3,5-difluorophenyl)-1-[(4-bromo-2-fluorophenyl)methyl]-4-hydroxy-4a-methyl-2-oxo-6,7-dihydro-5H-pyrrolo[1,2-b]pyridazine-3-carboxamide], the “Rate of uptake inhibition (%) (1 µM)” value turned out to be 73%.
As to `CN1N(Cc2cccc(F)c2F)C(=O)C(C(=O)Nc2ccc(C(F)(F)F)cc2-c2ccc(C(F)(F)F)nc2)=C(O)C12CCC2` [Example 301], the “Rate of uptake inhibition (%) (1 µM)” value is given as 79%.
Turning to `CN1[C@@H](C(C)(C)C)C(O)=C(C(=O)Nc2ccc(C(F)(F)F)cc2-c2ccc(C(F)(F)F)nc2)C(=O)N1Cc1ccc(OCCN2CCOCC2)c(F)c1F` [Example 266], the “Rate of uptake inhibition (%) (1 µM)” value is on record as 62%.
For `C[C@]12CCCN1N(Cc1ccc(F)c(F)c1)C(=O)C(C(=O)Nc1ccc(C(F)(F)F)cc1-c1cc(C(F)(F)F)ncn1)=C2O` [Example 214], the “Rate of uptake inhibition (%) (1 µM)” value was determined as 91%.
Regarding `CN1N(Cc2ccc(OCCCCOCCO)c(F)c2F)C(=O)C(C(=O)Nc2ccc(C(F)(F)F)cc2-c2cc(C(F)(F)F)ncn2)=C(O)C12CCCC2` [Example 396], the “Rate of uptake inhibition (%) (1 µM)” value is reported as 38%.
Under `COCCN(C)CCOCCOCCOCCOc1ccc(CN2C(=O)C(C(=O)Nc3ccc(C(F)(F)F)cc3-c3cc(C(F)(F)F)ncn3)=C(O)C3(CCCC3)N2C)c(F)c1F` [Example 431] stands 26%.
On to `COC(=O)CN(C)CCOc1ccc(CN2C(=O)C(C(=O)Nc3ccc(C(F)(F)F)cc3-c3cc(C(F)(F)F)ncn3)=C(O)C3(CCCC3)N2C)c(F)c1F` [Example 368], for which the “Rate of uptake inhibition (%) (1 µM)” value was found to be 26%.
For the compound `CSC1CN(CCOc2ccc(CN3C(=O)C(C(=O)Nc4ccc(C(F)(F)F)cc4-c4cc(C(F)(F)F)ncn4)=C(O)C4(CCC4)N3C)c(F)c2F)C1` [Example 357], the “Rate of uptake inhibition (%) (1 µM)” value is 45%.
Turning to `CN1[C@@H](C(C)(C)C)C(O)=C(C(=O)Nc2cnc(C(F)(F)F)nc2-c2ccc(C(F)(F)F)nc2)C(=O)N1Cc1ccc(OCCN2CCOCC2)c(F)c1F` [Example 273], the “Rate of uptake inhibition (%) (1 µM)” value was found to be 41%.
With `CN(C[C@H](O)[C@@H](O)[C@H](O)[C@H](O)CO)C(=O)CCOCCOCCOc1ccc(CN2C(=O)C(C(=O)Nc3ccc(C(F)(F)F)cc3-c3cc(C(F)(F)F)ncn3)=C(O)C3(CCCC3)N2C)c(F)c1F` [Example 422], the “Rate of uptake inhibition (%) (1 µM)” value turned out to be 29%.
On to `CN1N(Cc2cccc(F)c2F)C(=O)C(C(=O)Nc2ccc(C(F)(F)F)nc2-c2ccc(C(F)(F)F)nc2)=C(O)C1(C)C` [Example 304], for which the “Rate of uptake inhibition (%) (1 µM)” value was found to be 51%.
The figure for `CN1[C@@H](C(C)(C)C)C(O)=C(C(=O)Nc2ccc(Cl)cc2-c2cc(C(F)(F)F)ncn2)C(=O)N1Cc1cccc(F)c1F` [Example 237] is 51%; for `Cc1c(-c2cc(C(F)(F)F)ccc2NC(=O)C2=C(O)[C@H](C(C)(C)C)N(C)N(Cc3ccc(OCCN4CCOCC4)c(F)c3F)C2=O)ncnc1C(F)(F)F` [Example 278] it is 69%.
Under `C[C@]12CCCN1N(Cc1cccc(F)c1F)C(=O)C(C(=O)Nc1ccc(C(F)(F)F)cc1-c1cnc3ccccc3c1)=C2O` [Example 83] stands 90%.
On to `C[C@]12CCCN1N(CCCC(F)(F)F)C(=O)C(C(=O)Nc1ccc(C(F)(F)F)cc1-c1cc(C(F)(F)F)ncn1)=C2O` [Example 234, (4aR)-4-Hydroxy-4a-methyl-2-oxo-1-(4,4,4-trifluorobutyl)-N-[4-(trifluoromethyl)-2-[6-(trifluoromethyl)pyrimidin-4-yl]phenyl]-6,7-dihydro-5H-pyrrolo[1,2-b]pyridazine-3-carboxamide], for which the “Rate of uptake inhibition (%) (1 µM)” value is reported as 73%.
As for `Cc1ncc(-c2cc(C(F)(F)F)ccc2NC(=O)C2=C(O)[C@@]3(C)CCCN3N(Cc3cccc(F)c3F)C2=O)cc1C#N` [Example 109, (4aR)-N-[2-(5-Cyano-6-methylpyridin-3-yl)-4-(trifluoromethyl)phenyl]-1-[(2,3-difluorophenyl)methyl]-4-hydroxy-4a-methyl-2-oxo-6,7-dihydro-5H-pyrrolo[1,2-b]pyridazine-3-carboxamide], the “Rate of uptake inhibition (%) (1 µM)” value is on record as 52%.
On to `COc1cccc(-c2cc(C(F)(F)F)ccc2NC(=O)C2=C(O)[C@@]3(C)CCCN3N(Cc3cccc(F)c3F)C2=O)n1` [Example 93], for which the “Rate of uptake inhibition (%) (1 µM)” value turned out to be 56%.
For `Cc1cccc(CN2C(=O)C(C(=O)Nc3ccc(C(F)(F)F)cc3-c3cc(C(F)(F)F)ncn3)=C(O)[C@@]3(C)CCCN23)c1` [Example 186], the “Rate of uptake inhibition (%) (1 µM)” value worked out at 88%.
Turning to `CSc1ccc(-c2cc(C(F)(F)F)ccc2NC(=O)C2=C(O)C(C)(C)N(C)N(Cc3cccc(F)c3F)C2=O)cn1` [Example 310], the “Rate of uptake inhibition (%) (1 µM)” value is 63%.
Consider `CN1N(Cc2ccc(OCCCCOC[C@H](O)CO)c(F)c2F)C(=O)C(C(=O)Nc2ccc(C(F)(F)F)cc2-c2cc(C(F)(F)F)ncn2)=C(O)C12CCC2` [Example 390], for which the “Rate of uptake inhibition (%) (1 µM)” value was found to be 58%.
Under `CN(CCOCCOCCOCCOCCOc1ccc(CN2C(=O)C(C(=O)Nc3ccc(C(F)(F)F)cc3-c3cc(C(F)(F)F)ncn3)=C(O)C3(CCCC3)N2C)c(F)c1F)C[C@@H](O)[C@H](O)[C@@H](O)[C@@H](O)CO` [Example 421, 7-[[2,3-Difluoro-4-[2-[2-[2-[2-[2-[methyl-[(2R,3S,4S,5S)-2,3,4,5,6-pentahydroxyhexyl]amino]ethoxy]ethoxy]ethoxy]ethoxy]ethoxy]phenyl]methyl]-10-hydroxy-6-methyl-8-oxo-N-[4-(trifluoromethyl)-2-[6-(trifluoromethyl)pyrimidin-4-yl]phenyl]-6,7-diazaspiro[4.5]dec-9-ene-9-carboxamide] stands 24%; under `C[C@]12CCCN1N(Cc1ccc(OCCCCOC[C@H](O)CO)c(F)c1F)C(=O)C(C(=O)Nc1ccc(Cl)cc1-c1ccc(C(F)(F)F)nc1)=C2O` [Example 121, (4aR)-N-[4-Chloro-2-[6-(trifluoromethyl)pyridin-3-yl]phenyl]-1-[[4-[4-[(2R)-2,3-dihydroxypropoxy]butoxy]-2,3-difluorophenyl]methy]-4-hydroxy-4a-methyl-2-oxo-6,7-dihydro-5H-pyrrolo[1,2-b]pyridazine-3-carboxamide], 72%.
Under `CN1N(Cc2cccc(F)c2F)C(=O)C(C(=O)Nc2ccc(Cl)cc2-c2ccc(C(F)(F)F)nc2)=C(O)C1(C)C` [Example 309] stands 68%; under `CN(C[C@H](O)[C@@H](O)[C@H](O)[C@H](O)CO)C(=O)CCOCCOCCOCCOc1ccc(CN2C(=O)C(C(=O)Nc3ccc(C(F)(F)F)cc3-c3cc(C(F)(F)F)ncn3)=C(O)C3(CCCC3)N2C)c(F)c1F` [Example 423], 5%.
In the case of `Cc1ccc(CN2C(=O)C(C(=O)Nc3ccc(C(F)(F)F)cc3-c3cc(C(F)(F)F)ncn3)=C(O)[C@@]3(C)CCCN23)cc1` [Example 187], the “Rate of uptake inhibition (%) (1 µM)” value was determined as 80%.
With `C[C@]12CCCN1N(Cc1cccc(OC(F)F)c1)C(=O)C(C(=O)Nc1ccc(C(F)(F)F)cc1-c1ccc(C(F)(F)F)nc1)=C2O` [Example 167], the “Rate of uptake inhibition (%) (1 µM)” value came out at 73%.
The figure for `C[C@]12CCCN1N(Cc1cccc(F)c1F)C(=O)C(C(=O)Nc1ccc(C(F)(F)F)cc1-c1cc(C#N)ncn1)=C2O` [Example 100] is 69%.
In the case of `CN1N(Cc2ccc(OCCN3CCOCC3)c(F)c2F)C(=O)C(C(=O)Nc2ccc(Br)c(C(F)(F)F)n2)=C(O)C12CCCCC2` [Example 298], the “Rate of uptake inhibition (%) (1 µM)” value is on record as 10%.
Consider `COc1cccc(-c2cc(C(F)(F)F)ccc2NC(=O)C2=C(O)[C@@]3(C)CCCN3N(Cc3ccc(C#CCCCO)c(F)c3F)C2=O)c1OC` [Example 138], for which the “Rate of uptake inhibition (%) (1 µM)” value was determined as 93%.
Consider `C[C@]12CCCN1N(Cc1ccccc1F)C(=O)C(C(=O)Nc1ccc(C(F)(F)F)cc1-c1cc(C(F)(F)F)ncn1)=C2O` [Example 207], for which the “Rate of uptake inhibition (%) (1 µM)” value amounted to 73%.
For `CSc1ccc(-c2nc(C(F)(F)F)ccc2NC(=O)C2=C(O)[C@@]3(C)CCCN3N(Cc3cccc(F)c3F)C2=O)cn1` [Example 105], the “Rate of uptake inhibition (%) (1 µM)” value is recorded as 72%.
